Measured values from patent publication US6218112A, “Optimization of gene delivery and gene delivery system” (Cobra Therapeutics Limited, priority 1997, dated 2001).
“Also recorded” adds a separate entry of the source. Values belong to the substance of their own block, whether it stands above or below them. * marks the point of attachment. Palmitoyl = CCCCCCCCCCCCCCCC(=O)*; Acm = CC(=O)NC*

Experiments:
[1] = tested on: KLN-205 squamous epithelial syngenic tumour cells; test: In vivo transfection of KLN-205 tumours in DBA2 mice by local injection of peptide/plasmid complexes (nitroreductase immunostaining); set-up: species or system mouse; conditions: 0.5 μg peptide/μg DNA, intratumoural injection
Procedure: A representative in via cell transfection system is transfection of tumor cells using a murine carcinoma model.
The murine carcinoma model DBA2 containing the squamous epithelial syngenic tumour cell line KLN-205 was prepared as described in the Examples. A transfecting complex was prepared using a solution of plasmid DNA encoding a reporter gene or, for example, nitroreductase and a selected NBC peptide 0.5 μg peptide/μg DNA, as described herein. Where desired, a conjugate peptide was added to the transfecting complex, at a concentration of 0.1-0.3 μg […] peptide/μg DNA.
Transfection efficiency may be determined in a number of ways, including assessing the effect of the reporter gene on the target tissue, or by quantitating the gene product. Below, tissues samples were obtained and nitroreductase gene expression was ascertained via staining of tissue sections.
The ability to transfect tumor cells in vivo in mice was tested using plasmid nucleic acid carrying the nitroreductase reporter gene condensed on each of the following peptides: NBC15, NBC8, NBC9, NBC11, NBC7.
DBA2--male mice, aged 5-10 weeks were injected subcutaneously in each flank with a squamous epithelial syngenic tumour cell line KLN-205. The cell line was grown up in 175 ml T-flasks in standard EMEM medium containing 10% foetal calf serum. When the cells reached a density of 4×10^6 they were suspended by a standard trypsinization technique, washed in PBS and diluted to a final concentration of […].
The anaesthetic was Enflurane (Alynane; Anaquest, Ltd., Windlesham, Surrey UK): Ketamine (10% Ketaset, Willows Francis Veterinary, Cramley, West Sussex, UK); Rompun (2%, Bayer UK, Ltd., Suffolk, UK). For 10 ml anaesthetic mixture: 8.5 ml PBS; 1 ml Ketamine; 0.5 ml Rompun. Each animal was injected intra-peritoneally with 200 μl/animal using 1 ml syringe with 25 gauge needle. Once anaesthetized, the tumour is manipulated between the fingers lifting it slightly away from the animal's body and at the same time apply minimum pressure to the tumour. Using a 0.5 ml insulin needle the formulated delivery vehicle (a plasmid containing the E. coli nitroreductase gene condensed on a peptide at a ratio of 0.5 μg peptide/μg DNA) to be injected is taken up and the tumour is injected horizontally trying to avoid any visible blood vessels and necrotic or abnormal tissue. Daily monitoring is continued until the experiment is terminated.
7μ sections of frozen tumour tissue are prepared using standard methods and a Cryostat and air dried. Sections are fixed with freshly prepared 4% PFA/PBS for 30 mins at room temperature and then washed twice with 0.01% Tween-20/PBS 5 mins each wash. Sections are then immersed in 0.25% hydrogen peroxide/PBS, at room temperature (20C.) for 30 mins, and then washed three times in 0.01% Tween 20/PBS for 5 mins each wash. Sections are then permeabilised by treatment with ice cold 0.1 % TRITON X-100 for 5 mins, followed by a further two washes in 0.01% Tween-20/PBS 5mins each wash. The sections are then blocked with 5% NGS/PBS 60mins at room temperature in a wetbox. After decanting the blocking solution, 0.5 ml diluted antiserum/slide (1:400 in 2.5% NGS) is added and the sections incubated for 60 mins at room temperature. Slides are then washed three times in 0.01% Tween-20/PBS 5 mins each wash. Secondary antibody (0.5 ml) from ABC Elite Vector stain kit is added as follows and incubated 30 mins at room temperature in a wetbox.
The tumour is a murine syngenic squamous carcinoma produced by subcutaneous injection of KLN205 cells. When the tumours were approximately 4 mm in diameter they were injected with 20 μl of plasmid DNA formulated with the NBC15 peptide. After 48 h the tumours were excised and sectioned by standard histological techniques and immunostained for expression of the transgene (E. coli nitroreductase). […] In this case the tumours were injected with the same plasmid formulated in 0.5 μg NBC9 peptide/μg DNA.

Jurkat cell line = test: In vitro transfection with pRSVLuc (luciferase) condensed on peptides; assay type: cell-based; conditions: peptide 2 μg/μg plasmid DNA, luciferase after 24 h, FIG. 7
Procedure: (§1) After incubation the cells are lysed and are assayed for gene expression. In the case of the luciferase reporter gene, luciferin and ATP are added to lysed cells and the light emitted is measured with a luminometer (see deWet et al., supra).
Cell lines such as Jurkat and K562 grow in suspension and can be transfected and the level of transgene expression (luciferase activity) determined b) the following method. Cells are harvested on the day of assay by centrifugation at 1200 rpm for 5 mins at room temperature. The cell pellet is resuspended in phosphate buffered saline and re-centrifuged. This operation is performed twice. […] The cells are then aliquoted into tubes and 0.75 ml of RPMI medium added, followed by 0.04-0.08 ml of 100 mM Chloroquine and finally 0.25 ml of DNA-complex solution. The transfection is then allowed to proceed by incubating the cells at 37° C. for 4 h. After this time the cells are harvested by centrifugation at 2000 rpm. The cells are then suspended in 1 ml of RPMI medium and re-centrifuged. Finally the cells are suspended in 0.5 ml RPMI medium containing 10% foetal bovine serum. Each 0.5 ml of transfected cell suspension is transferred to a well of a 12 well plastic culture plate containing 1.5 ml of RPMI 10% FBS. The original transfection tube is rinsed with a further 1 ml of medium and the wash transferred to the culture dish making a final volume of 3 ml. The culture plate is then incubated at 37° C. for 24-90 h in an atmosphere of 5% CO2. The contents of each well in the culture dish are transferred to centrifuge tubes and the cells collected by centrifugation at 13000 rpm. The pellet is resuspended in 0.12 ml of Lysis Buffer (100 mM sodium phosphate, pH 7.8; 8 mM magnesium chloride, 1 mM EDTA; 1% Triton X-100 and 15% glycerol) and agitated with a pipette. The lysate is centrifuged at 13000 rpm for 1 min and the supernatant collected. 80 μl of the supernatant are transferred to a luminometer tube. The luciferase activity is then assayed using a Berthold Lumat L9501 luminometer. The assay buffer used is Lysis Buffer containing 10 mM Luciferin and 100 mM ATP. Light produced by the luciferase is integrated over 4s and is described as relative light units (RLU). The data are converted to RLU/ml of lysate, RLU/cell or RLU/mg protein (protein concentration of the lysate having been determined in this case by the BioRAD Lowry assay.
In order to compare the relative efficiency of transfection of complexes composed of different NBC condensation peptides or poly-L-lysine, pRSVLuc DNA at a concentration of 100 μg/ml was condensed using peptide at a ratio of 2 μg/μg plasmid DNA as described herein with the following deviation: prior to addition to the cells (Jurkat cell line) the complexes were diluted to 20 μg/ml with 10% PEG 10 000; 37 mM sodium chloride; 25 mM sodium phosphate, pH 7.4. The cells were assayed for luciferase after 24 h.

[2] = tested on: plasmid nucleic acid pRSVLuc; test: Surface plasmon resonance (BIAcore) binding kinetics of peptides/conjugates to immobilized biotinylated plasmid DNA
Procedure: In the examples described below, SPR was detected using the BIAcore system. This machine contained an SPR detector and an integrated microfluidic cartridge which is engineered such that an analyte solution (cationic peptide) is continuously passed over the sensor chip. The sensor chip consists of a glass plate coated with a thin film of gold covered in a layer of carboyxymethyl dextran. The chip used has a dextran layer to which streptavidin is covalently attached. The chip is prepared for use by adding biotinylated nucleic acid which will be bound to the chip via the streptavidin-biotin interaction, and the same chip is used in a series of experiments.
As material binds to the immobilized nucleic acid molecule on the sensor chip, the SPR angle of plane polarized light shining on the surface of the chip is monitored by the detector. Changes in angle are defined as resonance units (RU) and data are collected every second. Background effects are detected and automatically subtracted by the use of a control flow cell in line with the nucleic acid flow cell.
A typical sensorgram has three phases: an association phase, an equilibrium phase and a dissociation phase (see FIG. 1). The rise in signal occurs as more peptide binds to the immobilized plasmid DNA until equilibrium conditions are reached. The height of the peak is directly proportional to the mass of peptide bound. If the flow continues with buffer containing no peptide, peptide begins to dissociate from the complex and the resonance signal is reduced. The sensorgram can be used to compute apparent rate constants for each of the three individual processes.
(1) dC/dt=ka [PF ] [Pmax -PB ]-kd [PB ]
Measurement of Binding Kinetics by Surface Plasmon Resonance
A 6 kilobase (kb) plasmid DNA (pRSVLuc) was biotinylated using photoactivatable biotin (Pierce and Warriner) as per manufacturer's instructions.
A sensor chip with immobilized streptavidin (SA5) was conditioned following manufacturer's instructions, i.e., three one-minute injections of 1 M NaCl: 50 mM NaOH followed by one 1 min injection of 0.5% SDS. Flow rate on the BlAcore sensing device was 20 μl per min, running buffer was phosphate buffered saline (PBS). Flow path was flow cells 1 and 2.
The flow path was switched to flow cell 2 only and the flow rate was reduced to 10 μl per minute. Biotinylated plasmid at a concentration of […] in 0.5M NaCl was injected for 3 mins.
Phosphate buffered saline was used as running buffer at a flow rate of 20 μl per minute. The flow path was over flow cells 1 and 2. Flow cell 1 was used as a reference cell. The experiments were carried out at a temperature of 25° C.
Peptides were injected at various concentrations for three minutes. The injection was followed by a 5 min dissociation phase before the injection port was washed. The sensor chip was regenerated by the injection of 2M NaCl for 1 min. If necessary, this injection was repeated to bring the response back down to baseline before the next peptide sample was injected.
The data was analysed using the methods described in the handbook (BIAevaluation 2.1. Software Handbook, Pharmacia Biosensor AB, Uppsala, Sweden).
Essentially the plots were evaluated as follows: The dissociation constant, kd, was determined first. A curve or family of curves (same NBC at different concentrations) were plotted as response (Y) versus time as Ln (Yo/Y) versus time. In the area where the Ln(Yo/Y) curve was linear, a fit of the default dissociation model [AB]=[A]+[B] was made. The association constant, ka, was then calculated by fitting the related association model on that part of the association curve where a plot of In(abs(dY/dt) versus time was linear. KD were approximated by dividing the calculated kd with the calculated ka.

cells = test: Transfection efficiency / activity of complexes (general statement); assay type: cell-based; conditions: related to affinity for nucleic acid
Tumor Cells = test: In vitro transfection with complexes containing lipidated peptides; assay type: cell-based
Procedure: as §1
For the data provided in FIG. 8, complexes were assembled as described herein using NBC2 and Lip2 as condensing peptides.

Substance: poly-lysine [reference compound]
- ranking by numbers of transfected tumor cells (most to least efficient) [1]: NBC15>NBC8, NBC9, NBC11>NBC7>>>poly-lysine
- number of transfected tumor cells / level of transfection ([1]; 48 h, nitroreductase immunostaining): the fewest number of transfected tumor cells
- rank in order of relative transfection efficiency (most to least efficient) (Jurkat cell line): NBC11>NBC13>NBC8>>NBC15>>>polylysine

- ka ([2]; apparent rate constant for association, SPR, PBS, 25° C.): 219000 M⁻¹ s⁻¹
- kd ([2]; apparent rate constant for dissociation, SPR, PBS, 25° C.): 0.0011 s⁻¹
- apparent dissociation constant kd ([2]; approximate values): approximately 1×10^-3 sec^-1
- Kd ([2]; approximate values, read-out: equilibrium dissociation constant KD): ~5 nM
Substance: NH2-KKSPKKAKKPAAKKSPKKAKKPAAKKSPKKAKKPAAKKSPKKAKKPAYC(Acm)-COOH (H-KKSPKKAKKPAAKKSPKKAKKPAAKKSPKKAKKPAAKKSPKKAKKPAYC(Acm)-OH) [NBC10]
- transfection efficiency (cells): not completely deleterious to transfection

Substance: CH3-(CH2)14-CONH-KPKAAKPKKPKKKRKVEKKSPKKAKKPAAC(Acm)SEQ ID NO:11-COOH (Palmitoyl-KPKAAKPKKPKKKRKVEKKSPKKAKKPAAC(Acm)-OH; SMILES CCCCCCCCCCCCCCCC(=O)N[C@@H](CCCCN)C(=O)N1CCC[C@H]1C(=O)N[C@@H](CCCCN)C(=O)N[C@@H](C)C(=O)N[C@@H](C)C(=O)N[C@@H](CCCCN)C(=O)N1CCC[C@H]1C(=O)N[C@@H](CCCCN)C(=O)N[C@@H](CCCCN)C(=O)N1CCC[C@H]1C(=O)N[C@@H](CCCCN)C(=O)N[C@@H](CCCCN)C(=O)N[C@@H](CCCCN)C(=O)N[C@@H](CCCNC(=N)N)C(=O)N[C@@H](CCCCN)C(=O)N[C@H](C(=O)N[C@@H](CCC(=O)O)C(=O)N[C@@H](CCCCN)C(=O)N[C@@H](CCCCN)C(=O)N[C@@H](CO)C(=O)N1CCC[C@H]1C(=O)N[C@@H](CCCCN)C(=O)N[C@@H](CCCCN)C(=O)N[C@@H](C)C(=O)N[C@@H](CCCCN)C(=O)N[C@@H](CCCCN)C(=O)N1CCC[C@H]1C(=O)N[C@@H](C)C(=O)N[C@@H](C)C(=O)N[C@@H](CSCNC(C)=O)C(=O)O)C(C)C) [Lip2]
- transfection efficiency, lipidated peptide with free underivatized peptide (Tumor Cells; Lip2 with NBC2, FIG. 8): transfection efficiency is augmented; also recorded: more than two orders of magnitude
- transfection efficiency, condensation with lipidated peptide alone (Tumor Cells; complete condensation with palmitoyl-NBC2 (Lip2) alone): extremely poor transfection efficiencies
